For test [1], the target named is HSV-polymerase (Human herpesvirus 1 (strain 17) (HHV-1) (Human herpes simplex virus 1), UniProt P04293). Kind of test: biochemical.
Test [2] has as its system CMV. Kind of test: microbe, parasite or virus in culture. The test is classed as cell-based. The note with it: Human betaherpesvirus 5, 72 h, read-out: CMV-Luc Cellular EC50, NN-NHDF cells, MOI 1, 72 hrs.
Test [3] has as its target CMV-polymerase (Human cytomegalovirus (strain AD169) (HHV-5) (Human herpesvirus 5), UniProt P08546). As to the kind of experiment: biochemical.
Setting [4] is: read-out: CMV-polymerase Biochemical IC50.
[5] abbreviates: read-out: HSV-polymerase Biochemical IC50.
The mark [6] stands for this setting: CMV-polymerase Biochemical IC50.

Molecules are shown by their SMILES. Like-named read-outs stand apart in the source and are kept apart here. Where only a bound is given, the exact number is not on record here.

As for `CNS(=O)(=O)C1(CN2CCc3c(C(=O)NCc4ccc(C#N)cc4)nn(C)c3C2=O)CC1` [Example 123, N-(4-cyanobenzyl)-1-methyl-6-((1-(N-methylsulfamoyl)cyclopropyl)methyl)-7-oxo-4,5,6,7-tetrahydro-1H-pyrazolo[3,4-c]pyridine-3-carboxamide], the half-inhibitory concentration (IC50) in test [1] is 196 nM; in test [3] (setting [4]), 9 nM. In test [2], the EC50 worked out at 157 nM.

On to `Cn1nc(C2=NO[C@@H](c3ccc(C#N)cc3)C2)c2c1C(=O)N(CC1(S(=O)(=O)C(C)(C)CO)CC1)CC2` [Example 107, (R)-4-(3-(6-((1-((1-Hydroxy-2-methylpropan-2-yl)sulfonyl)cyclopropyl)methyl)-1-methyl-7-oxo-4,5,6,7-tetrahydro-1H-pyrazolo[3,4-c]pyridin-3-yl)-4,5-dihydroisoxazol-5-yl)benzonitrile], for which the 50% inhibitory concentration (IC50) in test [1] (setting [5]) is over 25000 nM; in test [3] (setting [4]), 872 nM. Further, the EC50 in test [2] is over 10000 nM.

As for `Cc1cc(NS(=O)(=O)C2(CN3CCc4c(C(=O)NCc5ccc(C#N)cc5)nn(C)c4C3=O)CC2)no1` [Example 165, N-(4-cyanobenzyl)-1-methyl-6-((1-(N-(5-methylisoxazol-3-yl)sulfamoyl)cyclopropyl)methyl)-7-oxo-4,5,6,7-tetrahydro-1H-pyrazolo[3,4-c]pyridine-3-carboxamide], the results for the IC50 in test [1] and in test [3] (setting [4]) were 14 nM and 1 nM, respectively. In addition, in test [2], the EC50 stood at 136 nM.

With `CC(=O)OCC(C)(C)S(=O)(=O)C1(CN2CCc3c(C(=O)NCc4ccc(C#N)cc4)nn(C)c3C2=O)CC1` [Example 57, 2-((1-((3-((4-Cyanobenzyl)carbamoyl)-1-methyl-7-oxo-4,5-dihydro-1H-pyrazolo[3,4-c]pyridin-6(7H)-yl)methyl)cyclopropyl)sulfonyl)-2-methylpropyl acetate], the half-inhibitory concentration (IC50) came out at 35 nM in test [1] and 1 nM in test [3] (setting [4]). In addition, the EC50 in test [2] turned out to be 22 nM.

Regarding `C[C@H](NC(=O)c1nn(C)c2c1CCN(CC1(S(=O)(=O)C(C)(CO)CO)CC1)C2=O)c1ccc(Cl)cc1` [Example 177, (S)-N-(1-(4-Chlorophenyl)ethyl)-6-((1-((1,3-dihydroxy-2-methylpropan-2-yl)sulfonyl)cyclopropyl)methyl)-1-methyl-7-oxo-4,5,6,7-tetrahydro-1H-pyrazolo[3,4-c]pyridine-3-carboxamide], the figures for the IC50 in test [1] and in test [3] (setting [4]) were 122 nM and 4 nM, respectively. Besides, the EC50 in test [2] was determined as 168 nM.

In the case of `Cn1nc(C(=O)NCc2ccc(C#N)cc2)c2ccn(CC3(S(C)(=O)=O)CC3)c(=O)c21` [Example 2, N-(4-Cyanobenzyl)-1-methyl-6-((1-(methylsulfonyl)cyclopropyl)methyl)-7-oxo-6,7-dihydro-1H-pyrazolo[3,4-c]pyridine-3-carboxamide], the IC50 in test [1] was determined as 1880 nM; in test [3] (setting [4]), 27 nM. In addition, the EC50 in test [2] was 536 nM.

`Cn1nc(C2=NO[C@H](c3ccc(C#N)cc3)C2)c2c1C(=O)N(CC1(S(=O)(=O)C(C)(C)CO)CC1)CC2` [Example 108, (S)-4-(3-(6-((1-((1-hydroxy-2-methylpropan-2-yl)sulfonyl)cyclopropyl)methyl)-1-methyl-7-oxo-4,5,6,7-tetrahydro-1H-pyrazolo[3,4-c]pyridin-3-yl)-4,5-dihydroisoxazol-5-yl)benzonitrile]: the IC50 is 47 nM in test [1] (setting [5]) and 1 nM in test [3] (setting [4]). Moreover, the concentration for a half-maximal effect (EC50) in test [2] was 32 nM.

Consider `Cn1nc(-c2cn(Cc3ccc(C#N)cc3)nn2)c2c1C(=O)N(CC1(S(=O)(=O)C(C)(C)CO)CC1)CC2` [Example 105, 4-((4-(6-((1-((1-Hydroxy-2-methylpropan-2-yl)sulfonyl)cyclopropyl)methyl)-1-methyl-7-oxo-4,5,6,7-tetrahydro-1H-pyrazolo[3,4-c]pyridin-3-yl)-1H-1,2,3-triazol-1-yl)methyl)benzonitrile], for which the IC50 was found to be 32 nM in test [1] and 1 nM in test [3] (setting [4]). The EC50 in test [2] amounted to 42 nM.

For the molecule `Cn1nc(C2=NO[C@@H](c3ccc(C#N)cc3)C2)c2c1C(=O)N(CC1(S(=O)(=O)C3CC3)CC1)CC2` [Example 32, (R)-4-(3-(6-((1-(Cyclopropylsulfonyl)cyclopropyl)methyl)-1-methyl-7-oxo-4,5,6,7-tetrahydro-1H-pyrazolo[3,4-c]pyridin-3-yl)-4,5-dihydroisoxazol-5-yl)benzonitrile], the concentration for half-maximal inhibition (IC50) in test [1] was found to be 161 nM; in test [3] (setting [6]), 3 nM. Moreover, the EC50 in test [2] worked out at 41 nM.

Regarding `COCC(C)(CO)S(=O)(=O)C1(CN2CCc3c(C(=O)NCc4ccc(C#N)cc4)nn(C)c3C2=O)CC1` (single isomer, unassigned) [Example 181, (R)- or (S)-N-(4-Cyanobenzyl)-6-((1-((1-hydroxy-3-methoxy-2-methylpropan-2-yl)sulfonyl)cyclopropyl)methyl)-1-methyl-7-oxo-4,5,6,7-tetrahydro-1H-pyrazolo[3,4-c]pyridine-3-carboxamide], the values for the half-inhibitory concentration (IC50) in test [1] and in test [3] (setting [6]) were 69 nM and 4 nM, respectively. Further, in test [2], the 50% effective concentration (EC50) came to 77 nM.

Turning to `Cn1nc(C(=O)NCc2ccc(C#N)cc2)c2c1C(=O)N(CC1(S(=O)(=O)C(F)F)CC1)CC2` [Example 38, N-(4-Cyanobenzyl)-6-((1-((difluoromethyl)sulfonyl)cyclopropyl)methyl)-1-methyl-7-oxo-4,5,6,7-tetrahydro-1H-pyrazolo[3,4-c]pyridine-3-carboxamide], the half-maximal inhibitory concentration (IC50) in test [1] was determined as 784 nM; in test [3] (setting [4]), 14 nM. The EC50 in test [2] amounted to 607 nM.

With `Cn1nc(C(=O)NCc2ccc(Cl)cc2)c2c1C(=O)N(CC1(S(=O)(=O)C(C)(C)C(N)=O)CC1)CC2` [Example 109, 6-((1-((1-amino-2-methyl-1-oxopropan-2-yl)sulfonyl)cyclopropyl)methyl)-N-(4-chlorobenzyl)-1-methyl-7-oxo-4,5,6,7-tetrahydro-1H-pyrazolo[3,4-c]pyridine-3-carboxamide], the figures for the concentration for half-maximal inhibition (IC50) in test [1] and in test [3] (setting [4]) were 76 nM and 3 nM, respectively. In addition, the half-maximal effective concentration (EC50) in test [2] was 78 nM.

On to `CC(O)CC(C)(C)S(=O)(=O)C1(CN2CCc3c(C(=O)NCc4ccc(C#N)cc4)nn(C)c3C2=O)CC1` (single isomer, unassigned) [Example 115, (R)- or (S)-N-(4-Cyanobenzyl)-6-((1-((4-hydroxy-2-methylpentan-2-yl)sulfonyl)cyclopropyl)methyl)-1-methyl-7-oxo-4,5,6,7-tetrahydro-1H-pyrazolo[3,4-c]pyridine-3-carboxamide], for which the IC50 in test [1] was found to be 71 nM; in test [3] (setting [6]), 3 nM. Also, the 50% effective concentration (EC50) in test [2] turned out to be 59 nM.

In the case of `Cn1nc(C(=O)NCc2ccc(C#N)cc2)c2c1C(=O)N(CC1(S(=O)(=O)C3COC3)CC1)CC2` [Example 168, N-(4-cyanobenzyl)-1-methyl-6-((1-(oxetan-3-ylsulfonyl)cyclopropyl)methyl)-7-oxo-4,5,6,7-tetrahydro-1H-pyrazolo[3,4-c]pyridine-3-carboxamide], the IC50 in test [1] (setting [5]) is 97 nM; in test [3] (setting [6]) it was 4 nM. The EC50 in test [2] is 72 nM.

On to `Cn1nc(C(=O)NCc2ccc(C#N)cc2)c2c1C(=O)N(CC1(S(=O)(=O)C(C)(C)CCO)CC1)CC2` [Example 113, N-(4-Cyanobenzyl)-6-((1-((4-hydroxy-2-methylbutan-2-yl)sulfonyl)cyclopropyl)methyl)-1-methyl-7-oxo-4,5,6,7-tetrahydro-1H-pyrazolo[3,4-c]pyridine-3-carboxamide], for which the IC50 in test [1] is 38 nM; in test [3] (setting [4]), 3 nM. In test [2], the 50% effective concentration (EC50) was 36 nM.

As to `Cn1nc(C(=O)NCc2ccc(Cl)cc2)c2c1C(=O)N(CC1(S(=O)(=O)C3(COCCN)CC3)CC1)CC2` [Example 95, 6-((1-((1-((2-Aminoethoxy)methyl)cyclopropyl)sulfonyl)cyclopropyl)methyl)-N-(4-chlorobenzyl)-1-methyl-7-oxo-4,5,6,7-tetrahydro-1H-pyrazolo[3,4-c]pyridine-3-carboxamide], the IC50 in test [1] came to 25 nM; in test [3] (setting [4]) it was 2 nM. Besides, the concentration giving a half-maximal response (EC50) in test [2] stood at 11 nM.

In the case of `Cn1nc(C(=O)NCc2ccc(C#N)cc2)c2c1C(=O)N(CC1(S(=O)(=O)C(C)(C)CNC=O)CC1)CC2` [Example 71, N-(4-Cyanobenzyl)-6-((1-((1-formamido-2-methylpropan-2-yl)sulfonyl)cyclopropyl)methyl)-1-methyl-7-oxo-4,5,6,7-tetrahydro-1H-pyrazolo[3,4-c]pyridine-3-carboxamide], the IC50 amounted to 33 nM in test [1] and 1 nM in test [3] (setting [6]). Besides, the EC50 in test [2] was found to be 95 nM.

As for `Cn1nc(C(=O)NCc2ccc(C#N)cc2)c2c1C(=O)N(CC1(S(=O)(=O)C3(C(O)CO)CC3)CC1)CC2` (single isomer, unassigned) [Example 194, (R)- or (S)-N-(4-Cyanobenzyl)-6-((1-((1-(1,2-dihydroxyethyl)cyclopropyl)sulfonyl)cyclopropyl)methyl)-1-methyl-7-oxo-4,5,6,7-tetrahydro-1H-pyrazolo[3,4-c]pyridine-3-carboxamide], the values for the half-maximal inhibitory concentration (IC50) in test [1] and in test [3] (setting [6]) were 20 nM and 1 nM, respectively. Further, the concentration for a half-maximal effect (EC50) in test [2] worked out at 50 nM.

For `Cn1nc(C(=O)NCc2ccc(C#N)cc2)c2c1C(=O)N(CC1(S(=O)(=O)C(C)(C)COC(F)CO)CC1)CC2` (single isomer, unassigned) [Example 80, (R)- or (S)-N-(4-Cyanobenzyl)-6-((1-((1-(1-fluoro-2-hydroxyethoxy)-2-methylpropan-2-yl)sulfonyl)cyclopropyl)methyl)-1-methyl-7-oxo-4,5,6,7-tetrahydro-1H-pyrazolo[3,4-c]pyridine-3-carboxamide], the values for the IC50 in test [1] and in test [3] (setting [6]) were 67 nM and 6 nM, respectively. The concentration giving a half-maximal response (EC50) in test [2] was 36 nM.

Regarding `Cn1nc(C(=O)NCc2ccc(C#N)cc2)c2c1C(=O)N(CC1(S(=O)(=O)N3CC(O)C3)CC1)CC2` [Example 128, N-(4-Cyanobenzyl)-6-((1-((3-hydroxyazetidin-1-yl)sulfonyl)cyclopropyl)methyl)-1-methyl-7-oxo-4,5,6,7-tetrahydro-1H-pyrazolo[3,4-c]pyridine-3-carboxamide], the half-inhibitory concentration (IC50) in test [1] turned out to be 137 nM; in test [3] (setting [6]), 5 nM. Also, the half-maximal effective concentration (EC50) in test [2] came out at 94 nM.

As usually defined, the IC50 is the midpoint of a concentration-inhibition curve. Usually EC50 stands for the concentration needed to bring the measured effect to its halfway point.

The values above are taken from US12338220B2, “Antiviral pyrazolopiridinone compounds” (Novartis AG, priority 2019, dated 2025).
